From patent publication EP0510260A2, “6'-C-alkyl-3-deazaneplanocin A derivative and its preparation process and use” (ASAHI KASEI KOGYO KABUSHIKI KAISHA, priority 1991, dated 1992)

What was measured:
virus = experiment: Antiviral activity: cytopathic effect (CPE) inhibition in virus-inoculated Vero cells; assay type: cell-based; settings: MIC, virus at 100 times TCID50, cultured 36 hours at 37°C, CPE observed microscopically
Protocol: By partly modifying the testing method reported in Antimicrobial Agents and Chemotherapy, 24(3), 353-361 (1983), antiviral activity was analyzed in the following manner. 200 µℓ of Eagle's minimum essential medium (with 10% fetal calf serum), in which Vero cells (product of Flow General Inc., marketed by Dainippon Pharmaceutical Co., Ltd., available from National Institute of Health) were suspended at the concentration of 3 x 10⁵ cells/mℓ, were cultured in a […] flat bottom plate. Subsequent to dense monolayer culture, the medium was removed and 90 µℓ of Eagle's minimum essential medium (with 3% fetal calf serum) containing a test compound were added. The tissue culture infections dosis 50% (TCID₅₀) had been determined in advance without addition of any drug. The above-prepared culture plate was inoculated with 10 µℓ of a virus solution whose concentration was 100 times higher than TCID₅₀ determined in advance. The cells were cultured for 36 hours at 37°C under 5% CO₂. The cytopathic effect (CPE) was microscopically observed, whereby the minimum virus growth inhibitory concentration (MIC) was determined.

Vero cells = experiment: Measurement of cytotoxicity by the MTT method; assay type: cell-based; settings: cultured 72 hours, ID50 (growth of cells inhibited to 50%)
Protocol: Added to 100 µℓ of Eagle's minimum essential medium were 100 µℓ of Eagle's minimum essential medium (with 10% fetal calf serum), in which Vero cells were suspended at the concentration of 5 x 10⁴ cells/mℓ as well as a test compound. The resultant mixture was cultured for 72 hours in a […] flat bottom plate. The cytotoxicity of the test compound was then measured by the MTT measuring method reported in J. Immunol. Methods, 65, 55-63 (1983). The cytotoxicity is indicated in terms of the concentration (ID₅₀) which inhibited the growth of cells to 50%.

Nc1nccc2c1ncn2[C@@H]1C=C(CO)[C@@H](O)[C@H]1O [3-Deazaneplanosin A, 3-deazaneplanocin A]
Minimum virus growth inhibitory concen. (virus): 0.24 µg/mL

CC(O)C1=C[C@@H](n2cnc3c(N)nccc32)[C@H](O)[C@@H]1O (single isomer, unassigned) [6'-c-Methyl-3-deazaneplanocin A, 6'-C-Methyl-3-deazaneplanocin A]
50% cell growth inhibitory concentration (ID50) (Vero cells): 12.4 µg/mL | Minimum virus growth inhibitory concen. (virus): 1.0 µg/mL

Nc1ncnc2c1ncn2[C@@H]1C=C(CO)[C@@H](O)[C@H]1O [Neplanocin A]
Minimum virus growth inhibitory concen. (virus): 0.24 µg/mL
